# Key:
# Format in all cases: in vivo, human
# MCT and MCC = assay: QRT-PCR of MCT and MCC in scar biopsies; conditions: week 4, all groups, p<0.05
# Procedure: A double-blind randomized placebo-controlled trial was conducted using a temporal punch-biopsy model. The punch biopsy and topical application methodology used in the study is illustrated in FIG. 1, namely showing pre-injury pre-emptive priming (7-days), pre-injury pre-emptive priming (3-days), day of injury (immediate application on day 0), post-injury (delayed 2 weeks post injury) including biopsy time points and time of topical applications. Each group applied both placebo and topical formulations twice daily for the duration of the study until week 8, with only the starting time point differing between groups Participants were split into 4 groups (n=10 in each group) in order to compare different modes (timings) of commencement of the topical application: • Group-1: Pre-emptive Priming (7-days): pre-injury • Group-2: Pre-emptive Priming (3-days): pre-injury • Group-3: Immediate (0-day): day-of-injury • Group-4: Delayed (14-days): post-injury Clinical quantitative devices were used to objectively monitor cutaneous healing at weekly intervals and punch biopsies were performed on day 0 (uninjured skin) and at weeks 4 and 8 for protein and gene expression analyses. […] Excisional skin biopsies in upper arms were evaluated weekly with multiple quantitative devices over an 8-week period. […] MCT, MCC and CKit quantitative measurements are expressed in mm^2.
# Hemeoxygenase-1 (HO-1) = assay: HO-1 immunohistochemical marker (anti-oxidant effect); conditions: week 4, all groups, p<0.01
# Procedure: A double-blind randomized placebo-controlled trial was conducted using a temporal punch-biopsy model. The punch biopsy and topical application methodology used in the study is illustrated in FIG. 1, namely showing pre-injury pre-emptive priming (7-days), pre-injury pre-emptive priming (3-days), day of injury (immediate application on day 0), post-injury (delayed 2 weeks post injury) including biopsy time points and time of topical applications. Each group applied both placebo and topical formulations twice daily for the duration of the study until week 8, with only the starting time point differing between groups Participants were split into 4 groups (n=10 in each group) in order to compare different modes (timings) of commencement of the topical application: • Group-1: Pre-emptive Priming (7-days): pre-injury • Group-2: Pre-emptive Priming (3-days): pre-injury • Group-3: Immediate (0-day): day-of-injury • Group-4: Delayed (14-days): post-injury Clinical quantitative devices were used to objectively monitor cutaneous healing at weekly intervals and punch biopsies were performed on day 0 (uninjured skin) and at weeks 4 and 8 for protein and gene expression analyses. […] Excisional skin biopsies in upper arms were evaluated weekly with multiple quantitative devices over an 8-week period. […]
# elastin = assay: Immunohistochemical analysis of elastin in scar biopsies
# Procedure: A double-blind randomized placebo-controlled trial was conducted using a temporal punch-biopsy model. The punch biopsy and topical application methodology used in the study is illustrated in FIG. 1, namely showing pre-injury pre-emptive priming (7-days), pre-injury pre-emptive priming (3-days), day of injury (immediate application on day 0), post-injury (delayed 2 weeks post injury) including biopsy time points and time of topical applications. Each group applied both placebo and topical formulations twice daily for the duration of the study until week 8, with only the starting time point differing between groups Participants were split into 4 groups (n=10 in each group) in order to compare different modes (timings) of commencement of the topical application: • Group-1: Pre-emptive Priming (7-days): pre-injury • Group-2: Pre-emptive Priming (3-days): pre-injury • Group-3: Immediate (0-day): day-of-injury • Group-4: Delayed (14-days): post-injury Clinical quantitative devices were used to objectively monitor cutaneous healing at weekly intervals and punch biopsies were performed on day 0 (uninjured skin) and at weeks 4 and 8 for protein and gene expression analyses. In the trial, topical EGCG and a placebo topical were applied twice daily for the duration of the trial until week 8 with only the starting time points differing between groups. Clinical and experimental analysis involved use of non-invasive devices as well as protein and gene studies. Excisional skin biopsies in upper arms were evaluated weekly with multiple quantitative devices over an 8-week period. Immunohistochemical analyses, mRNA sequencing and QRT-PCR were performed on tissue biopsies. […] There was also a significant increase at week-4 in group-1 only by 12% with EGCG (P=0.01). Between group analysis indicated a significant difference at week-8 (p=0.001). The greatest differences were in group-1 compared to groups-3 by 20% (p=0.008) and group-4 by 20% (p=0.003) and in group-2 compared to group-4 by 17% (p=0.009).
structure (smiles),measurement,setting,value
"O=C(OC1Cc2c(O)cc(O)cc2OC1c1cc(O)c(O)c(O)c1)c1cc(O)c(O)c(O)c1 (single isomer, unassigned; (-)) [EGCG, (-)-epigallocatechin-3-gallate]","QRT-PCR MCC expression, EGCG-treated samples",MCT and MCC,down-regulation
same,"QRT-PCR MCT expression, EGCG-treated samples",MCT and MCC,down-regulation
same,"HO-1 levels, EGCG-treated samples compared to placebo",Hemeoxygenase-1 (HO-1),significantly higher
same,Elastin levels in primed uninjured skin,elastin; primed uninjured skin prior to injury,increases elastin levels
same,Elastin (immunohistochemical) increase with EGCG,"elastin; week 4, group-1 only, P=0.01",12%
same,"Elastin (immunohistochemical), EGCG-treated samples compared to placebo","elastin; week 8, all groups, p<0.01",up-regulated
same,Elastin: difference of group-2 compared to group-4,"elastin; week 8, 3-day priming vs delayed, p=0.009",17%
same,Elastin: difference of group-1 compared to group-4,"elastin; week 8, 7-day priming vs delayed, p=0.003",20%
same,Elastin: difference of group-1 compared to group-3,"elastin; week 8, 7-day priming vs immediate, p=0.008",20%
